Tests used:
[1] = biological target: T1, caspase 6 (Homo sapiens, UniProt P55212); assay: Caspase inhibition, delayed-time fluorescence method (europium substrate Eu-W1284-CVEIDK-QSy-7)
T1 sequence (P55212 24-179 limits assumed): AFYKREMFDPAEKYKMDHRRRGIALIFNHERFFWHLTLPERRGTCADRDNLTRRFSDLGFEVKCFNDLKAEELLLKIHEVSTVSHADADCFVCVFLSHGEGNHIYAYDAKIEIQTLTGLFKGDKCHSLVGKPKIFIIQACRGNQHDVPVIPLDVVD
T1 sequence (P55212 194-293 limits assumed): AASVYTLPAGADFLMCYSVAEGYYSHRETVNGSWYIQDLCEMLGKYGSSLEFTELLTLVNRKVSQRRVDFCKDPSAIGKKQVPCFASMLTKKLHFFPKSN

[2] = biological target: T2, caspase 3 (Homo sapiens, UniProt P42574); assay: Caspase inhibition, delayed-time fluorescence method (europium substrate Eu-W1284-CDEVDK-QSy-7)
T2 sequence (P42574 29-175 limits assumed): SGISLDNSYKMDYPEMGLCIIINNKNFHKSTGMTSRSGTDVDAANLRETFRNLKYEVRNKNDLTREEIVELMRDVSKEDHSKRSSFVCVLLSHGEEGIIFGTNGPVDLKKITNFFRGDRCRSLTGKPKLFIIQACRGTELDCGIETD
T2 sequence (P42574 176-277 limits assumed): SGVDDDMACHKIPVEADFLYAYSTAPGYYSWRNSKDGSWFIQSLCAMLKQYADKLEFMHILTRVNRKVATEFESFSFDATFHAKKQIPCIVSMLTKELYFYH

[3] = biological target: T3, caspase-10 (Homo sapiens, UniProt Q92851); assay: Caspase inhibition, delayed-time fluorescence method (europium substrate Eu-W1284-CIETDK-QSy-7)
T3 sequence (Q92851 220-415 limits assumed): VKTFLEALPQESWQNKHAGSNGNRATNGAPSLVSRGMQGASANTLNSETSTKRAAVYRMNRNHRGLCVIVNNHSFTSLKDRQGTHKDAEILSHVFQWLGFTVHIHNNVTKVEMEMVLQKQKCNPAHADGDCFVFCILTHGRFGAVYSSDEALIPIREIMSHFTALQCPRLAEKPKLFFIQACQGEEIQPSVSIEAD
T3 sequence (Q92851 416-521 limits assumed): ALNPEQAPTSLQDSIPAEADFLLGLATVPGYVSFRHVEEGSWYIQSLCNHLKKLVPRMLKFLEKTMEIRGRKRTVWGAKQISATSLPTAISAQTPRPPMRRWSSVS
Protocol: (§1) The substrate used is a tetrapeptide specific to this caspase, having at one of its ends a fluorescent europium marker (W1284) and at the other end a europium chelate fluorescence quencher (QSy-7): Eu-W1284-CIETDK-QSy-7.
(§2) The caspase cleaves the substrate, releasing the quencher. Thus, by excitation at 340 nm, the signal emitted by the fluorescence of the europium is read by WALLAC Victor^2 reader at 615 nm.
20 μl of this solution are distributed per well of the assay plate. […] The assay is performed with 1 U of enzyme per well, by distributing 20 μl of the diluted solution per well. • The standard inhibitors: The standard inhibitors are dissolved in DMSO to a concentration of 10 mM.
(§3) They are then distributed in the wells using this solution to reach the final concentration of IC20 or IC50, i.e. 3 μl in 33 μl of final reaction volume (dilution 1/11). Thus, the final concentration of DMSO in the well is 0.3% (v/v) final. […] An intermediate dilution (1/6.6) is pre-pared in DMSO by diluting 10 μl of the concentrated solution in 66 μl of DMSO (final volume). […] The inhibitors are then distributed in the wells to reach the final screening concentration (10 μM), i.e. 3 μl in 33 μl of final reaction volume (dilution 1/11) and a final concentration of DMSO of 0.3% (v/v) in the well.
(§4) The incubation takes place for 3 hours 30 minutes at room temperature before reading the fluorescence in delayed time on the WALLAC Victor^2 reader with the filters corresponding to the fluorescence of europium (excitation filter: 340 nm, emission filter: 615 nm).
(§5) The inhibitors are diluted using solutions with concentrations of less than 20 mM in DMSO, and then prediluted in the caspase buffer.

[4] = biological target: caspase 8 (Homo sapiens, UniProt Q14790); assay: as above
Protocol: as §1, §2
They are ready for use or can be divided into aliquots and stored at −80° C. […] 20 μl of this solution are distributed per well of the assay plate. […] The assay is performed with 1 U of enzyme per well, by distributing 20 μl of the diluted solution per well. • The standard inhibitors: The standard inhibitors are dissolved in DMSO to a concentration of 10 mM. They are tested at IC20 and at IC50 on the caspases they inhibit (see following table). The concentrations mentioned in the table are the final concentrations in the assay wells.
as §3
The volumes and the protocol were optimised for automated use.
as §4, §5

[5] = biological target: T4, caspase 9 (Homo sapiens, UniProt P55211); assay: Caspase inhibition, delayed-time fluorescence method (europium substrate Eu-W1284-CLEHDK-QSy-7)
T4 sequence (P55211 1-315 limits assumed): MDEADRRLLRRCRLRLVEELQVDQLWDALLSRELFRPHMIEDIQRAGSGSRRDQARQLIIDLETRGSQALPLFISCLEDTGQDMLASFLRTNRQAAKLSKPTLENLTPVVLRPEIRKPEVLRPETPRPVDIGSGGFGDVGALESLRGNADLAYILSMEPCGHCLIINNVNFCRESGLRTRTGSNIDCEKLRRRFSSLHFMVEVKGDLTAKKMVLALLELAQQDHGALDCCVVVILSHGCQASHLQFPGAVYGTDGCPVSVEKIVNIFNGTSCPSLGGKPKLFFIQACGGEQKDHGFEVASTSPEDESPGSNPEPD
T4 sequence (P55211 331-416 limits assumed): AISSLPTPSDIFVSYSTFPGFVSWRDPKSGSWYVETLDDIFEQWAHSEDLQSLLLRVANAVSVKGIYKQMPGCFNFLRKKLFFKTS

[6] = biological target: T5, caspase 2 (Homo sapiens, UniProt P42575); assay: Caspase inhibition, delayed-time fluorescence method (europium substrate Eu-W1284-CDEVDK-QSy-7)
T5 sequence (P42575 170-325 limits assumed): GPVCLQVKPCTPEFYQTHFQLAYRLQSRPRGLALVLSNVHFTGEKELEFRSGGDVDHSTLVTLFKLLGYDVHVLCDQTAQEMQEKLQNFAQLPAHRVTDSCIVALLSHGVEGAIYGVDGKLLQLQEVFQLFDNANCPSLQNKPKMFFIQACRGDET
T5 sequence (P42575 348-452 limits assumed): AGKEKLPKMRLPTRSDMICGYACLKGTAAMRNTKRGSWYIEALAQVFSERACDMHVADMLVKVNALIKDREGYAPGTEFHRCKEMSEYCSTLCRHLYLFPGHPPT

[7] = system: diabetic rats; conditions: cited from earlier work

Chain of caspase 8 (Q14790 217-374 limits assumed): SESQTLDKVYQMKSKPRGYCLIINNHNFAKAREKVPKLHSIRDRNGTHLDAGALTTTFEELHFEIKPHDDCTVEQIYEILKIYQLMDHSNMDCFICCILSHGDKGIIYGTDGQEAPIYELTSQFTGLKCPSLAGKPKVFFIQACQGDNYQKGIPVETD
Chain of caspase 8 (Q14790 385-479 limits assumed): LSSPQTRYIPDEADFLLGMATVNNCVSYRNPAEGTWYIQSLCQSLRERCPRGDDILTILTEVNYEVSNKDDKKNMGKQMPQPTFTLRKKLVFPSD

IC50 [1] [µM] | IC50 [2] [µM] | IC50 [3] [µM] | IC50 [4] [µM] | IC50 [5] [µM] | IC50 [6] [µM] | Compound | reduced formation of acellular capillaries ([7]; diabetic rats treated for 26 weeks) [%] | death of the pericytes ([7]; diabetic rats treated for 29 weeks, versus untreated rats)
> 200 | > 200 | 23.6 | > 200 | > 200 | > 200 | O=C(O)Cc1cc(Cl)ccc1-c1ccc(C(F)(F)F)cc1 [Example 15, [4-chloro-4′-(trifluoromethyl)biphenyl-2-yl]acetic acid] |  | 
> 200 | > 200 | 9 | > 200 | > 200 | > 200 | COc1ccc(-c2ccc(Cl)cc2CC(=O)O)cc1 [Example 16, (4-chloro-4′-methoxybiphenyl-2-yl)acetic acid] |  | 

Continued, compound first:

Compound | IC50 [1] [µM] | IC50 [2] [µM] | IC50 [3] [µM] | IC50 [4] [µM] | IC50 [5] [µM] | IC50 [6] [µM] | reduced formation of acellular capillaries ([7]; diabetic rats treated for 26 weeks) [%] | death of the pericytes ([7]; diabetic rats treated for 29 weeks, versus untreated rats)
Cc1ccc(-c2ccc(Cl)cc2CC(=O)O)cc1 [Example 12, (4-chloro-4′-methylbiphenyl-2-yl)acetic acid] | > 200 | > 200 | 13.1 | > 200 | > 200 | > 200 |  | 
O=C(O)Cc1cc(Cl)ccc1-c1ccc(Cl)cc1 [Example 14, (4,4′-dichlorobiphenyl-2-yl)acetic acid] | > 200 | > 200 | 10.1 | > 200 | > 200 | > 200 |  | 
N=C(N)NN [aminoguanidine] |  |  |  |  |  |  | 80 | 
Cc1ncc(CO)c(CN)c1O [pyridoxamine] |  |  |  |  |  |  |  | prevents the death of the pericytes

Reference: US7829721B2, “Specific caspase-10 inhibitors” (Merck Patent GmbH, priority 2004, dated 2010)
